From patent publication US20160187553A1, “METHOD OF MANUFACTURING POLARIZING PLATE, POLARIZING PLATE MANUFACTURED USING THE METHOD, AND LIQUID CRYSTAL DISPLAY DEVICE” (Konica Minolta, Inc., priority 2010, published 2016)
Where two headings read alike, the source gives them in different places.

Experiments:
[1] = logP of additives A and B of the protective films
[2] = reference liquid; cited from earlier work

| logP [1] | Compound | logP ([1]; additive of protective film) | γLd [2] [mN/m] | γLh [2] [mN/m] | γLp [2] [mN/m] |
| --- | --- | --- | --- | --- | --- |
| 2.3 | CCOC(=O)COC(=O)c1ccccc1C(=O)OCC [EPEG, Ethylphthalyl ethylglycolate] |  |  |  |  |
| 9.9 | O=C(OCC(COC(=O)c1ccccc1)(COC(=O)c1ccccc1)COC(=O)c1ccccc1)c1ccccc1 [PETB, pentaerythritol-tetrabenzoate] |  |  |  |  |
|  | O=P(Oc1ccccc1)(Oc1ccccc1)Oc1ccccc1-c1ccccc1 [BDP, Biphenyldiphenyl phosphate] | 7.3 |  |  |  |
| 7.9 | CCC(COC(=O)c1ccccc1)(COC(=O)c1ccccc1)COC(=O)c1ccccc1 [Compound 16] |  |  |  |  |
|  | O [water] |  | 30.4 | 42.4 | 0.0 |
|  | ICI [diiodomethane] |  | 51.0 | 0.0 | 0.0 |
|  | C[N+](=O)[O-] [nitromethane] |  | 18.3 | 0.0 | 17.7 |

| Compound | logP [1] | logP ([1]; additive of protective film) | γLd [2] [mN/m] | γLh [2] [mN/m] | γLp [2] [mN/m] |
| --- | --- | --- | --- | --- | --- |
| O=P(Oc1ccccc1)(Oc1ccccc1)Oc1ccccc1 [TPP, Triphenyl phosphate] | 5.6 |  |  |  |  |
